The values that follow come from US7812183B2, “Benzopyran derivatives as potassium channel openers” (Janssen Pharmaceutica NV, priority 2005, dated 2010).

Structures are written as SMILES.

For this experiment, the target named is T1, KATP channels (Homo sapiens, UniProt O60706+Q14654).
T1 construct: TE671 human medulloblastoma cells were obtained from ATCC; host or cells: TE671 human medulloblastoma cells
T1 sequence (O60706 1-1549 isoform O60706-2): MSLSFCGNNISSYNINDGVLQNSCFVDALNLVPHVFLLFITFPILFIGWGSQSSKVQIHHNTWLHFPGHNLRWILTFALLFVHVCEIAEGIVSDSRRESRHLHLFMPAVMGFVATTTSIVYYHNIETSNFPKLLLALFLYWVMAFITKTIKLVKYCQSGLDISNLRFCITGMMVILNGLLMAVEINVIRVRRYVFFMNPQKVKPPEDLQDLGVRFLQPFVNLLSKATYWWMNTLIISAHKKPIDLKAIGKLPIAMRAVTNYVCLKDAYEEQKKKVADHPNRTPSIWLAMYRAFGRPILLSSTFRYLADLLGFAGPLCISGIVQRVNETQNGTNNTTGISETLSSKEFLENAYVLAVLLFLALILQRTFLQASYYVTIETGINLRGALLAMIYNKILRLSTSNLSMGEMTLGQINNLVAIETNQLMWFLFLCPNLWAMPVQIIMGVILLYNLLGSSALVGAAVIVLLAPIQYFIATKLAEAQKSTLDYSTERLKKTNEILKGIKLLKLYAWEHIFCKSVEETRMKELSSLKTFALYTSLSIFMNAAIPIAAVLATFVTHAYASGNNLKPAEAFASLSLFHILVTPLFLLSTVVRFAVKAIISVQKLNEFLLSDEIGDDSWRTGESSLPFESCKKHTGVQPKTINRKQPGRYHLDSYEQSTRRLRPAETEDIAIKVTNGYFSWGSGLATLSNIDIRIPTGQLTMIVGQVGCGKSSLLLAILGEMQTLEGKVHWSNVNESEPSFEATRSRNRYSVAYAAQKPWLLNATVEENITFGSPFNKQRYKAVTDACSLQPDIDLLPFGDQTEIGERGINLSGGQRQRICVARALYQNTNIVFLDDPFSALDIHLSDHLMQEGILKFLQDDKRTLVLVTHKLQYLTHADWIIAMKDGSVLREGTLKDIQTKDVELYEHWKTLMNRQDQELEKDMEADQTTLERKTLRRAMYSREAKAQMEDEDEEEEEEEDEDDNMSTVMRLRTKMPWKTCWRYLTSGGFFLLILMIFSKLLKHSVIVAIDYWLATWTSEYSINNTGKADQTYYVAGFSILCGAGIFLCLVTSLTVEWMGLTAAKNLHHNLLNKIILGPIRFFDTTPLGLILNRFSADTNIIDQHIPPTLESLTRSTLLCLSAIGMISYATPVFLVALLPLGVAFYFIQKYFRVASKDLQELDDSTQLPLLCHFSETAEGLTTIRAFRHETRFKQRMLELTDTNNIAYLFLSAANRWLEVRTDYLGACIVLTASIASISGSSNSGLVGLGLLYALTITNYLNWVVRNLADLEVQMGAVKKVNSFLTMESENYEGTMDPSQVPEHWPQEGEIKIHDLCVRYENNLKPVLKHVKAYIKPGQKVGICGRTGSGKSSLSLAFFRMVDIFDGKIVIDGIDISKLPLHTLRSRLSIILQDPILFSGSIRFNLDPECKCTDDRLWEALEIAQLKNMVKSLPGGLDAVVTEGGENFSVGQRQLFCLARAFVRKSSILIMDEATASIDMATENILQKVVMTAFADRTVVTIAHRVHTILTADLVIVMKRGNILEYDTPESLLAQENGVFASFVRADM
T1 sequence (Q14654 whole entry): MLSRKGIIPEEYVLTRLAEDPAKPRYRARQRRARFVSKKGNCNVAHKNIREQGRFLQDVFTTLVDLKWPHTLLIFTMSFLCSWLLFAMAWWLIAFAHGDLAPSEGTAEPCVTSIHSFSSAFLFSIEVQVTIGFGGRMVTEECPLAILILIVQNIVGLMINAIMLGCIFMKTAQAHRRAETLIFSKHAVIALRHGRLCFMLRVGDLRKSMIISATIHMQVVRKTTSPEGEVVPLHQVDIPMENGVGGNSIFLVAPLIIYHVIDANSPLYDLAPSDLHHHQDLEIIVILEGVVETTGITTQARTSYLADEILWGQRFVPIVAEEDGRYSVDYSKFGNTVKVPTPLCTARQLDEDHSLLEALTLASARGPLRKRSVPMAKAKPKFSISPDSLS
The experiment is described as follows: Potassium Channel Assay (FLIPR membrane potential, TE671 cells). In kind it is cell-based. The settings on record: TE671 human medulloblastoma cells, Membrane Potential Assay Dye, room temperature, hyperpolarization from KATP channel opening. How it is done:
TE671 human medulloblastoma cells were obtained from ATCC and grown in Dulbecco's modified Eagle's medium (DMEM) supplemented with 10% fetal bovine serum, 100 U/ml penicillin and 100 U/ml streptomycine.
The day before testing, the cells were plated in black 96-well plates at 50K/well. On the day of testing, the growth media was removed, then 100 μl of FLIPR buffer (20 mM HEPES, 120 mM NaCl, 2 mM KCl, 2 mM CaCl2, 1 mM MgCl2, 5 mM Glucose) and 100 μl of Membrane Potential Assay Dye (Molecular Devices) dissolved in FLIPR buffer were added to each well. The cells were incubated at room temperature for 15 to 30 min.
The effect of test compounds on KATP channels were evaluated on a fluorometric imaging plate reader (FLIPR, Molecular Devices) at room temperature. After a baseline period, 50 μl of 5× stock solution of test compound prepared in FLIPR buffer was added and fluorescent change was monitored for 3 minutes. After this reading, glyburide, a KATP channel blocker, was added to a final concentration of 5 μM to check the specificity of the test compound as a KATP channel openers. Hyperpolarization resulting from KATP channel opening was observed as a decrease in fluorescent intensity.
Representative compounds of the present invention were tested according to the procedure described above, with results as listed in Table 7, below.
As for `CC1(C)Oc2ccc(S(=O)(=O)c3ccc(Cl)cc3)cc2[C@@H](n2oc3cc(Cl)ccc3c2=O)[C@@H]1O` [Compound 102, 6-Chloro-2-[6-(4-chloro-benzenesulfonyl)-3S-hydroxy-2,2-dimethyl-chroman-4-yl]-R-benzo[d]isoxazol-3-one], the 50% effective concentration (EC50) – broadly, the concentration at which the effect is half-maximal – turned out to be 7.99 µM. The molecule `CC1(C)Oc2ccc(Cl)cc2[C@@H](N2C(=O)CCN2c2ccccc2)[C@@H]1O` (racemic) [Compound 13, 2-(6-Chloro-3-hydroxy-2,2-dimethyl-chroman-4-yl)-1-phenyl-pyrazolidin-3-one] yielded an EC50 of 3.16 µM. Turning to `CC1(C)Oc2ccc(C#N)cc2[C@@H](n2nccc2-c2ccc(Cl)cc2)[C@@H]1O` [Compound 10, 4R-[5-(4-Chloro-phenyl)-pyrazol-1-yl]-3S-hydroxy-2,2-dimethyl-chroman-6-carbonitrile], the EC50 amounted to 1.5 µM. In turn, `COc1ccc2onc(O[C@@H]3c4cc(C#N)ccc4OC(C)(C)[C@H]3O)c2c1` [Compound 44, (3S,4R)-3-Hydroxy-4-(5-methoxy-benzo[d]isoxazol-3-yloxy)-2,2-dimethyl-chroman-6-carbonitrile] displayed an EC50 of 12.3 µM. With `CC1(C)Oc2ccc(C#N)cc2[C@@H](Nc2nc3cc([N+](=O)[O-])ccc3s2)[C@@H]1O` (racemic) [Compound 6, 3-Hydroxy-2,2-dimethyl-4-(5-nitro-benzothiazol-2-ylamino)-chroman-6-carbonitrile] the figure was 3.09 µM; with `CC1(C)Oc2ccc(C#N)cc2[C@@H](Oc2noc3cc(Cl)ccc23)[C@@H]1O` [Compound 22, 4R-(6-Chloro-benzo[d]isoxazol-3-yloxy)-3S-hydroxy-2,2-dimethyl-chroman-6-carbonitrile], 0.26 µM. Then `Cc1cn([C@@H]2c3cc(C#N)ccc3OC(C)(C)[C@H]2O)c(-c2ccccc2)n1` (racemic) [Compound 9, 3-Hydroxy-2,2-dimethyl-4-(4-methyl-2-phenyl-imidazol-1-yl)-chroman-6-carbonitrile], with greater than 30 µM; and `CC1(C)Oc2ccc(C#N)cc2[C@@H](NS(=O)(=O)c2cccc(Cl)c2)[C@@H]1O` [Compound 66, (3S,4R)-3-Chloro-N-(6-cyano-3-hydroxy-2,2-dimethyl-chroman-4-yl)-benzenesulfonamide], with 1.54 µM.

`CC1(C)Oc2ccc(C#N)cc2[C@@H](n2c(=O)ccn2-c2ccc(Cl)cc2)[C@@H]1O` (racemic) [Compound 15, 4-[2-(4-Chloro-phenyl)-5-oxo-2,5-dihydro-pyrazol-1-yl]-3-hydroxy-2,2-dimethyl-chroman-6-carbonitrile] came in with a half-maximal effective concentration (EC50) of 5.93 µM. With `CC1(C)C=C(n2ccnc2-c2ccc(Cl)cc2)c2cc(C#N)ccc2O1` [Compound 54, 4-[2-(4-Chloro-phenyl)-imidazol-1-yl]-2,2-dimethyl-2H-chromene-6-carbonitrile] the figure was 1.84 µM; with `CC1(C)Oc2ccc(C#N)cc2[C@@H](SC2=NCCO2)[C@@H]1O` (stereo in doubt) [Compound 68, 4-(4,5-Dihydro-oxazol-2-ylsulfanyl)-3-hydroxy-2,2-dimethyl-chroman-6-carbonitrile], 3.45 µM; with `CC1(C)Oc2ccc(C#N)cc2[C@@H](Nc2nc3cc(F)ccc3s2)[C@@H]1O` (racemic) [Compound 5, 4-(5-Fluoro-benzothiazol-2-ylamino)-3-hydroxy-2,2-dimethyl-chroman-6-carbonitrile], 8.44 µM. With `CC1(C)Oc2ccc(C(=O)c3ccccc3)cc2[C@@H](n2oc3cc(Cl)ccc3c2=O)[C@@H]1O` [Compound 96, 2-(6-Benzoyl-3S-hydroxy-2,2-dimethyl-chroman-4-yl)-6-chloro-4R-benzo[d]isoxazol-3-one] the figure was 6.45 µM; with `CC1(C)C=C(n2cncc2-c2ccc(Cl)cc2)c2cc(C#N)ccc2O1` [Compound 63, 4-[5-(4-Chloro-phenyl)-imidazol-1-yl]-2,2-dimethyl-2H-chromene-6-carbonitrile], 7.9 µM. Then `CC1(C)Oc2ccc(Cl)cc2[C@@H](n2ccnc2-c2ccccc2)[C@@H]1O` (racemic) [Compound 49, 6-Chloro-2,2-dimethyl-4-(2-phenyl-imidazol-1-yl)-chroman-3-ol], with greater than 30 µM; and `CC1(C)Oc2ccncc2[C@@H](n2nccc2-c2ccc(Cl)cc2)[C@@H]1O` (racemic) [Compound 108, 4-[5-(4-Chloro-phenyl)-pyrazol-1-yl]-2,2-dimethyl-3,4-dihydro-2H-pyrano[3,2-c]pyridin-3-ol], with 4.33 µM. Regarding `CC1(C)Oc2ccc(C#N)cc2[C@@H](N2CCN(c3ccc(F)cc3)CC2)[C@@H]1O` (racemic) [Compound 48, 4-[4-(4-Fluoro-phenyl)-piperazin-1-yl]-3-hydroxy-2,2-dimethyl-chroman-6-carbonitrile], the EC50 was determined as 6.34 µM. `CC1(C)Oc2ccc(C#N)cc2[C@@H](S(=O)(=O)c2noc3cc(Cl)ccc23)[C@@H]1O` (racemic) [Compound 19, 4-(6-Chloro-benzo[d]isoxazole-3-sulfonyl)-3-hydroxy-2,2-dimethyl-chroman-6-carbonitrile] showed a 50% effective concentration (EC50) of 15.4 µM. With `CCN(CC)S(=O)(=O)c1ccc2c(c1)[C@@H](Oc1noc3cc(Cl)ccc13)[C@H](O)C(C)(C)O2` [Compound 79, 4R-(6-Chloro-benzo[d]isoxazol-3-yloxy)-3S-hydroxy-2,2-dimethyl-chroman-6-sulfonic acid diethylamide] the figure was greater than 30 µM; with `CC1(C)Oc2ccc(C#N)cc2[C@@H](S(=O)(=O)c2ncc[nH]2)C1O` (stereo in doubt) [Compound 71, (3S,4R)-3-Hydroxy-4-(1H-imidazole-2-sulfonyl)-2,2-dimethyl-chroman-6-carbonitrile], greater than 30 µM; with `CC1(C)C=C(Nc2nc(=O)c3ccccc3[nH]2)c2cc(C#N)ccc2O1` [Compound 46, 2,2-Dimethyl-4-(4-oxo-1,4-dihydro-quinazolin-2-ylamino)-2H-chromene-6-carbonitrile], 28.3 µM.

`CC1(C)Oc2ccncc2[C@@H](n2ccnc2-c2ccc(Cl)cc2)[C@@H]1O` (racemic) [Compound 111, 4-[2-(4-Chloro-phenyl)-imidazol-1-yl]-2,2-dimethyl-3,4-dihydro-2H-pyrano[3,2-c]pyridin-3-ol] came in with an EC50 greater than 30 µM. The molecule `CC1(C)Oc2ccc(C#N)cc2[C@@H](N2C(=O)c3ccc(Cl)cc3C2=O)[C@@H]1O` [Compound 115, 4-(5-Chloro-1,3-dioxo-1,3-dihydro-isoindol-2-yl)-3-hydroxy-2,2-dimethyl-chroman-6-carbonitrile] yielded a 50% effective concentration (EC50) of 3.16 µM. Then `CC1(C)Oc2ccc(S(=O)(=O)c3ccc(Cl)cc3)cc2[C@@H](Oc2noc3cc(Cl)ccc23)[C@@H]1O` [Compound 101, 6-(4-Chloro-benzenesulfonyl)-4R-(6-chloro-benzo[d]isoxazol-3-yloxy)-2,2-dimethyl-chroman-3S-ol], with greater than 30 µM; and `CC1(C)Oc2cc(Cl)c(Cl)cc2[C@@H](Nc2noc3ccc(Cl)cc23)[C@@H]1O` [Compound 91, 6,7-Dichloro-4R-(5-chloro-benzo[d]isoxazol-3-ylamino)-2,2-dimethyl-chroman-3S-ol], with 24.8 µM.

The molecule `CCN(CC)C(=O)c1ccc2c(c1)[C@@H](Nc1noc3ccc(Cl)cc13)[C@H](O)C(C)(C)O2` [Compound 89, 4R-(5-Chloro-benzo[d]isoxazol-3-ylamino)-3S-hydroxy-2,2-dimethyl-chroman-6-carboxylic acid diethylamide] displayed an EC50 greater than 30 µM. Then `CC1(C)Oc2ccc(S(=O)(=O)c3ccccc3)cc2[C@@H](Nc2noc3c(Cl)cccc23)[C@@H]1O` [Compound 87, (3S,4R)-6-Benzenesulfonyl-4R-(7-chloro-benzo[d]isoxazol-3-ylamino)-2,2-dimethyl-chroman-3S-ol], with greater than 30 µM; and `CC1(C)Oc2ccc(C#N)cc2[C@@H](n2ccnc2-c2ccccc2)[C@@H]1O` (racemic) [Compound 47, 3-Hydroxy-2,2-dimethyl-4-(2-phenyl-imidazol-1-yl)-chroman-6-carbonitrile], with greater than 30 µM; and `CC1(C)Oc2ccc(C#N)cc2[C@@H](Oc2noc3ccc(F)cc23)[C@@H]1O` [Compound 70, (3S,4R)-4-(5-Fluoro-benzo[d]isoxazol-3-yloxy)-3-hydroxy-2,2-dimethyl-chroman-6-carbonitrile], with 19.3 µM. As for `COc1ccc(S(=O)(=O)c2ccc3c(c2)[C@@H](n2oc4cc(Cl)ccc4c2=O)[C@H](O)C(C)(C)O3)cc1` [Compound 98, 6-Chloro-2-[3S-hydroxy-6-(4-methoxy-benzenesulfonyl)-2,2-dimethyl-chroman-4-yl]-4R-benzo[d]isoxazol-3-one], the response was half-maximal at 7.33 µM (EC50).

`CC1(C)Oc2ccncc2[C@@H](n2ccnc2-c2ccccc2)[C@@H]1O` (racemic) [Compound 105, 2,2-Dimethyl-4-(2-phenyl-imidazol-1-yl)-3,4-dihydro-2H-pyrano[3,2-c]pyridin-3-ol] came in with an EC50 greater than 30 µM.

As to `CC1(C)Oc2ccc(C#N)cc2[C@@H](Nc2nc(=O)c3ccccc3[nH]2)[C@@H]1O` (racemic) [Compound 118, 3-Hydroxy-2,2-dimethyl-4-(4-oxo-1,4-dihydro-quinazolin-2-ylamino)-chroman-6-carbonitrile], the EC50 worked out at 7.8 µM.
